Data taken from patent US9239329B2 (priority 2006, dated 2016).

What was measured:
[1] = test system: A/Guizhou/54/89(H3N2); type: binding, influenza virus; details: virus 100 HAU in PBS, 150 μl/min for 5 min, room temperature
[2] = test system: A/Fukuoka/C29/85(H3N2); type: binding, influenza virus; details: virus 100 HAU in PBS, 150 μl/min for 5 min, room temperature
[3] = type: binding; details: 2.0 μM protein in PBS-T, 150 μl/min for 5 min, room temperature; FIG. 3

Neu5Acα2-6Galβ1-4Glc
interaction between sugar chain and influenza virus (SPR signal intensity) [1]: limited interaction
interaction between sugar chain and influenza virus (SPR signal intensity) [2]: strong interaction

bovine serum albumin
interaction of protein with immobilized sugar chains (increase in brightness at spot positions, SPR) [3]: increase in brightness at none of the spot positions

concanavalin A
interaction of protein with immobilized sugar chains (increase in brightness at spot positions, SPR) [3]: interacted with the sugar chains immobilized at the spot positions

wheat germ agglutinin
interaction of protein with immobilized sugar chains (increase in brightness at spot positions, SPR) [3]: interacted with the sugar chains immobilized at the spot positions
